Experimental data: patent US8729093B2 (priority 2006, dated 2014)
Where two headings read alike, the source gives them in different places.

Legend:
rice blast [1] = experiment: whole plant or invertebrate; type: in vivo; settings: Pyricularia oryzae, 504 h, read-out: prevention value
rice blast [2] = type: in vivo, Pyricularia oryzae
rice "Bakanae" disease = experiment: whole plant or invertebrate; type: in vivo; settings: Oryza sativa, 504 h, read-out: prevention value
[3] = rice (Sachikaze), nursery box soil treated at sowing time or transplanting time, 400 g a.i./10 a, observed 7 days after inoculation, untreated plants = 3

CC1(C)Cc2c(F)cccc2C(c2cnc3ccccc3c2)=N1 [Compound No. 1-32, 3-(5-fluoro-3,3-dimethyl-3,4-dihydroisoquinolin-1-yl)quinoline] was tested, and the pest or weed control at 0.02 % a.i. (rice blast [1]) was no less than 80%, the disease severity (rice blast [2]; [3]) was 0 and the pest or weed control at 0.02 % a.i. (rice "Bakanae" disease) was no less than 80%.

Work on CC1(C)Cc2c(Cl)cccc2C(c2cnc3ccccc3c2)=N1 [Compound No. 1-44, 3-(5-chloro-3,3-dimethyl-3,4-dihydroisoquinolin-1-yl)quinoline] yielded a disease severity (rice blast [2]; [3]) of 0.

CC1(C)Cc2c(Br)cccc2C(c2cnc3ccccc3c2)=N1 [Compound No. 1-56, 3-(5-bromo-3,3-dimethyl-3,4-dihydroisoquinolin-1-yl)quinoline] gave a disease severity (rice blast [2]; [3]) of 0.

Molecule CC1(C)Cc2c(ccc(F)c2F)C(c2cnc3ccccc3c2)=N1 [Compound No. 1-117, 3-(5,6-difluoro-3,3-dimethyl-3,4-dihydroisoquinolin-1-yl)quinoline] has a disease severity (rice blast [2]; [3]) of 0.

Molecule CCCC1(C)Cc2c(F)cccc2C(c2cnc3ccccc3c2)=N1 (stereo not shown) [Compound No. 1-185, 3-(5-fluoro-3-methyl-3-propyl-3,4-dihydroisoquinolin-1-yl)quinoline] has a disease severity (rice blast [2]; [3]) of 0.

In the case of CC1(C(F)(F)F)Cc2ccccc2C(c2cnc3ccccc3c2)=N1 (stereo not shown) [Compound No. 1-387, 3-(3-methyl-3-trifluoromethyl-3,4-dihydroisoquinolin-1-yl)quinoline], the disease severity (rice blast [2]; [3]) is reported as 0.

CC1(CC(F)(F)F)Cc2ccccc2C(c2cnc3ccccc3c2)=N1 (stereo not shown) [Compound No. 1-425, 3-[3-methyl-3-(2,2,2-trifluoroethyl)-3,4-dihydroisoquinolin-1-yl]quinoline] showed a disease severity (rice blast [2]; [3]) of 0.

Work on CC1(c2ccc(F)cc2)Cc2ccccc2C(c2cnc3ccccc3c2)=N1 (stereo not shown) [Compound No. 1-502, 3-[3-methyl-3-(4-fluorophenyl)-3,4-dihydroisoquinolin-1-yl]quinoline] yielded a disease severity (rice blast [2]; [3]) of 0.

For CC1(C)N=C(c2cnc3ccccc3c2)c2ccccc2C1(C)C [Compound No. 1-865, 3-(3,3,4,4-tetramethyl-3,4-dihydroisoquinolin-1-yl)quinoline], the pest or weed control at 0.02 % a.i. (rice "Bakanae" disease) was no less than 80%.

Molecule CC1(C)N=C(c2cnc3ccccc3c2)c2cccc(F)c2C1(C)C [Compound No. 1-866, 3-(5-fluoro-3,3,4,4-tetramethyl-3,4-dihydroisoquinolin-1-yl)quinoline] has a pest or weed control at 0.02 % a.i. (rice blast [1]) of no less than 80%, a disease severity (rice blast [2]; [3]) of 0 and a pest or weed control at 0.02 % a.i. (rice "Bakanae" disease) of no less than 80%.

CC1(C)N=C(c2cnc3c(F)cccc3c2)c2cccc(F)c2C1(C)C [Compound No. 1-918, 8-fluoro-3-(5-fluoro-3,3,4,4-tetramethyl-3,4-dihydroisoquinolin-1-yl)quinoline] showed a disease severity (rice blast [2]; [3]) of 0.

With Cc1cccc2cc(C3=NC(C)(C)C(C)(C)c4c(F)cccc43)cnc12 [Compound No. 1-919, 3-(5-fluoro-3,3,4,4-tetramethyl-3,4-dihydroisoquinolin-1-yl)-8-methylquinoline] the disease severity (rice blast [2]; [3]) was 0.

For CC1(C)N=C(c2cnc3ccccc3c2)c2ccccc2C1(F)F [Compound No. 1-929, 3-(4,4-difluoro-3,3-dimethyl-3,4-dihydroisoquinolin-1-yl)quinoline], the pest or weed control at 0.02 % a.i. (rice blast [1]) was no less than 80%, the disease severity (rice blast [2]; [3]) was 0 and the pest or weed control at 0.02 % a.i. (rice "Bakanae" disease) was no less than 80%.

CC1(C)N=C(c2cnc3ccccc3c2)c2cccc(F)c2C1(F)F [Compound No. 1-930, 3-(4,4,5-trifluoro-3,3-dimethyl-3,4-dihydroisoquinolin-1-yl)quinoline] gave a pest or weed control at 0.02 % a.i. (rice blast [1]) of no less than 80%, a disease severity (rice blast [2]; [3]) of 0 and a pest or weed control at 0.02 % a.i. (rice "Bakanae" disease) of no less than 80%.

For CC1(C)c2ccccc2C2(c3cnc4ccccc4c3)ON2C1(C)C (stereo not shown) [Compound No. 2-91, 3,3,4,4-tetramethyl-8b-quinolin-3-yl-4,8b-dihydro-3H-oxazireno[3,2-a]isoquino line], the disease severity (rice blast [2]; in vivo) was 0.

For CC1(C)c2c(F)cccc2C2(c3cnc4ccccc4c3)ON2C1(C)C (stereo not shown) [Compound No. 2-100, 5-fluoro-3,3,4,4-tetramethyl-8b-quinolin-3-yl-4,8b-dihydro-3H-oxazireno[3,2-a]isoquinoline], the pest or weed control at 0.02 % a.i. (rice blast [1]) was no less than 80% and the pest or weed control at 0.02 % a.i. (rice "Bakanae" disease) was no less than 80%.

CC1(C)N2OC2(c2cnc3ccccc3c2)c2ccccc2C1(F)F (stereo not shown) [Compound No. 2-134, 4,4-difluoro-3,3-dimethyl-8b-quinolin-3-yl-4,8b-dihydro-3H-oxazireno[3,2-a]isoquinoline] showed a pest or weed control at 0.02 % a.i. (rice blast [1]) of no less than 80%.

Work on CC1(C)N2OC2(c2cnc3ccccc3c2)c2cccc(F)c2C1(F)F (stereo not shown) [Compound No. 2-135, 4,4,5-trifluoro-3,3-dimethyl-8b-quinolin-3-yl-4,8b-dihydro-3H-oxazireno[3,2-a]isoquinoline] yielded a pest or weed control at 0.02 % a.i. (rice blast [1]) of no less than 80%.

CC1(C)c2c(F)cccc2C(c2cnc3ccccc3c2)=[N+]([O-])C1(C)C [Compound No. 3-100, 3-(5-fluoro-3,3,4,4-tetramethyl-2-oxido-3,4-dihydroisoquinolin-1-yl)quinoline] gave a pest or weed control at 0.02 % a.i. (rice blast [1]) of no less than 80%, a disease severity (rice blast [2]; [3]) of 0 and a pest or weed control at 0.02 % a.i. (rice "Bakanae" disease) of no less than 80%.

Work on CC1(C)c2cc(F)ccc2C(c2cnc3ccccc3c2)=[N+]([O-])C1(C)C [Compound No. 3-109, 3-(6-fluoro-3,3,4,4-tetramethyl-2-oxido-3,4-dihydroisoquinolin-1-yl)quinoline] yielded a disease severity (rice blast [2]; [3]) of 0.

CC1(C)[N+]([O-])=C(c2cnc3ccccc3c2)c2ccccc2C1(F)F [Compound No. 3-134, 3-(4,4-difluoro-3,3-dimethyl-2-oxido-3,4-dihydroisoquinolin-1-yl)quinoline] gave a pest or weed control at 0.02 % a.i. (rice blast [1]) of no less than 80%, a disease severity (rice blast [2]; [3]) of 0 and a pest or weed control at 0.02 % a.i. (rice "Bakanae" disease) of no less than 80%.

Work on CC1(C)[N+]([O-])=C(c2cnc3ccccc3c2)c2cccc(F)c2C1(F)F [Compound No. 3-135, 3-(4,4,5-trifluoro-3,3-dimethyl-2-oxido-3,4-dihydroisoquinolin-1-yl)quinoline] yielded a pest or weed control at 0.02 % a.i. (rice blast [1]) of no less than 80%, a disease severity (rice blast [2]; [3]) of 0 and a pest or weed control at 0.02 % a.i. (rice "Bakanae" disease) of no less than 80%.
